# Results: patent US8163767B2, “Heterocyclic Janus Kinase 3 inhibitors” (Astellas Pharma Inc., priority 2005, dated 2012)
# Molecular target: T1, human JAK3 (Homo sapiens, UniProt P52333)
# T1 construct: His (N); purchased Carna Bioscience Inc. (Kobe, Japan); host or cells: baculovirus expression system
# Assay: Determination of Janus Kinase 3 (JAK3) inhibitory activity
# Type: biochemical
# Conditions: read-out: IR (JAK3 inhibition rate)
# Description: Test 1: Determination of Janus Kinase 3 (JAK3) Inhibitory Activity
# The assay for JAK3 activity was performed basically according to the method as proposed by Okimoto et al, as follows.
# Purified kinase domain (KD) of human JAK3 was purchased from Carna Bioscience Inc. (Kobe, Japan). 796-1124 (end) amino acids of human JAK3 [accession number #NM_000215] was expressed as N-terminal His-tagged protein (41 kDa) using the baculovirus expression system and purified by using Ni-NTA affinity chromatography.
# Biotin-Lyn-Substrate-peptide and ATP were used as substrates. Assay buffer consisted of 15 mM Tris-HCl pH7.5, 0.01% Tween 20 and 2 mM DTT. For the standard assay, 20 μL of substrate solution (Assay buffer containing 627 nM Biotin-Lyn-Substrate-2, 20 μM ATP and 25 mM MgCl2), 10 μL of assay buffer containing test compound and 20 μL of enzyme solution were added to the plate and mixed well.
# After 1 hour incubation at ambient temperature, the plate was washed 4 times with wash buffer (50 mM Tris-HCl pH 7.5, 150 mM NaCl, 0.02% Tween 20), and then blocking buffer (wash buffer containing 0.1% Bovine serum albumin) was added to the plate. After 30 minutes incubation at ambient temperature, blocking buffer was removed and HRP-PY-20 solution (HRP-PY-20 500 times diluted with blocking buffer) was added. After 30 minutes incubation at ambient temperature, the plate was washed 4 times and TMB substrate solution (Sigma) was added to the plate. After 4 minutes incubation at ambient temperature, 1 M H2SO4 was added to the plate to stop the reaction. Enzyme activity was measured as optical density at 450 nm.
# T1 sequence (P52333 796-1124): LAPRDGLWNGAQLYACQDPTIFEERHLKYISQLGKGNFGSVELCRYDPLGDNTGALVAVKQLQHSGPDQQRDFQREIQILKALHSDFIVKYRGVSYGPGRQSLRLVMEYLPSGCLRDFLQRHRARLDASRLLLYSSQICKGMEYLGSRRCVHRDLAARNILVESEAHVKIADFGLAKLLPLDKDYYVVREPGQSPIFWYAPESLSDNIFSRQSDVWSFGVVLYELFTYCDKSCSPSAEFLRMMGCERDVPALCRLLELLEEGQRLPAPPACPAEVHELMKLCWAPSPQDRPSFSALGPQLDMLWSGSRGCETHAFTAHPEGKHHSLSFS
SMILES,inhibition at 0.01 µM (test compound 10^−8M),inhibition at 10 µM (test compound 10^−5M)
"N#Cc1ccc(N2CCC(Nc3c(C(N)=O)cnc4[nH]ccc34)CC2)nc1 [Example 17, 4-{[1-(5-Cyano-2-pyridinyl)-4-piperidinyl]amino}-1H-pyrrolo-[2,3-b]pyridine-5-carboxamide]",> 50%,
"Fc1cnc2[nH]ccc2c1NC1CCCCC1 [Example 222, N-cyclohexyl-5-fluoro-1H-pyrrolo[2,3-b]pyridin-4-amine]",,> 50%
